{"source": "patent US8536133B2", "about": "“Selective high-affinity polydentate ligands and methods of making such” (Lawrence Livermore National Security, LLC., priority 2004, dated 2013)", "target": "HLA-DR10 (Homo sapiens, UniProt P01911)", "sequence (P01911 30-266 with the stated changes)": "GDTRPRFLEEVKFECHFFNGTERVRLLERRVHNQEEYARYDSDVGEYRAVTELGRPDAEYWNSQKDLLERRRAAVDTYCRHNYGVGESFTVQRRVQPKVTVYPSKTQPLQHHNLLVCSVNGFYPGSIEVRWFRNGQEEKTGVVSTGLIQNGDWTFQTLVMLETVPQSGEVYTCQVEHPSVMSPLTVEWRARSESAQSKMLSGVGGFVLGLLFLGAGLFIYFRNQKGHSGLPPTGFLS", "sequence (P01903 26-254 partner)": "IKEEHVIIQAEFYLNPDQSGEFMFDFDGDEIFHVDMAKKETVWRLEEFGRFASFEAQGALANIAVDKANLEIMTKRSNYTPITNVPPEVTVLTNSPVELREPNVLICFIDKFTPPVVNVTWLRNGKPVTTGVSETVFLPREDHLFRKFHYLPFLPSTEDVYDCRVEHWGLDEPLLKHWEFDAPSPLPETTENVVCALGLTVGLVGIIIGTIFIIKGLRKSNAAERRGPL", "experiment": "Subsequent screenings of ligands for binding to HLA-DR10"}
{"smiles": "Nc1ccc(Oc2ccc(C(=O)c3ccc(C(=O)c4ccc(Oc5ccc(N)cc5)cc4)cc3)cc2)cc1", "note": "[1,4-Phenylenebis[[4-(4-aminophenoxy)phenyl]methanone]]", "values": [{"measurement": "observation with the target protein in screening", "result": "precipitated onto the target protein"}]}
